According to the supplement of paper PMC11061612:

How the values were obtained:
Experiment in all cases: Bliss excess, mean over the matrix (fraction); higher = more synergy
[1] = system: LS-513 (Colorectal Carcinoma)
Outline: (§1)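 Bliss excess equals the observed combination effect minus the expected value EA + EB − EA·EB, where EA and EB are the effects of each agent alone. Combination Emax is the second-highest inhibition within the matrix. Inhibition was scaled from CellTiter-Glo 2.0 luminescence, with 0 set by vehicle wells and 1 by blank wells, after 72 hours of two-drug dosing of cells plated in 1536-well plates.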

[2] = system: LU-99A (Non-Small Cell Lung Carcinoma)
Outline: as §1

[3] = system: CTV-1 (T-Lymphoblastic Leukemia)
Outline: as §1

[4] = system: SW1088 (Low Grade Glioma)
Outline: as §1

[5] = system: SUIT-2 (Pancreatic Carcinoma)
Outline: as §1

[6] = system: COR-L23 (Non-Small Cell Lung Carcinoma)
Outline: as §1

[7] = system: IHH-4 (Thyroid Gland Carcinoma)
Outline: as §1

[8] = system: NCI-H2595 (Mesothelioma)
Outline: as §1

[9] = system: TE-5 (Esophageal Squamous Cell Carcinoma)
Outline: as §1

[10] = system: SW756 (Cervical Carcinoma)
Outline: as §1

[11] = system: DMS-273 (Small Cell Lung Carcinoma)
Outline: as §1

[12] = system: U-266 (Plasma Cell Myeloma)
Outline: as §1

[13] = system: DSH1 (Bladder Carcinoma)
Outline: as §1

[14] = system: HT-29 (Colorectal Carcinoma)
Outline: as §1

[15] = system: SK-N-FI (Neuroblastoma)
Outline: as §1

[16] = system: RH-1 (Ewing's Sarcoma)
Outline: as §1

[17] = system: NCI-H1299 (Non-Small Cell Lung Carcinoma)
Outline: as §1

[18] = system: NCI-H1781 (Lung Adenocarcinoma)
Outline: as §1

[19] = system: DOV13 (Ovarian Carcinoma)
Outline: as §1

[20] = system: HCC2157 (Breast Carcinoma)
Outline: as §1

SMILES	Bliss excess [1]	Bliss excess [2]	Bliss excess [3]	Bliss excess [4]	Bliss excess [5]	Bliss excess [6]	Bliss excess [7]	Bliss excess [8]	Bliss excess [9]	Bliss excess [10]	Bliss excess [11]	Bliss excess [12]	Bliss excess [13]	Bliss excess [14]	Bliss excess [15]	Bliss excess [16]	Bliss excess [17]	Bliss excess [18]	Bliss excess [19]	Bliss excess [20]
NC1(C(=O)N[C@@H](CCO)c2ccc(Cl)cc2)CCN(c2ncnc3[nH]ccc23)CC1 [Capivasertib] + CC(C)n1c(=O)n(C)c2cnc3cc(F)c(-c4ccc(OCCCN5CCCCC5)nc4)cc3c21 [AZD1390] (first compound max 10 µM, 7x7, partner max 0.3 µM)	-0.0511	-0.0962	-0.0908	-0.0822	-0.0441	-0.0579	-0.0074	-0.0609	-0.0254	-0.0647	-0.0281	-0.101	-0.0895	-0.0376	-0.0588	-0.0292	-0.0362	-0.0696	-0.0407	0.002
CN(CCO)CC[C@H](CSc1ccccc1)Nc1ccc(S(=O)(=O)NC(=O)c2ccc(N3CCC([C@@H](O)c4ccccc4-c4ccc(Cl)cc4)CC3)cc2)cc1S(=O)(=O)C(F)(F)F [AZD4320] + CCN(CCO)CCCOc1ccc2c(Nc3cc(CC(=O)Nc4cccc(F)c4)[nH]n3)ncnc2c1 [AZD2811] (first compound max 1 µM, 7x7, partner max 1 µM)	-0.0584	0.0564	0.0053	-0.0659	-0.0472	-0.0343	-0.0372	-0.032	0.0379	-0.0334	-0.0732	0.113	0.0821	-0.0074	-0.022	-0.0551	-0.0237	-0.0788	0.0816	0.0907
COc1cccc(OCCCN)c1-c1cc(Nc2cnc(C#N)cn2)n[nH]1 [Prexasertib] + CN(C)CCCOc1ccc(-c2ccc3ncc4c(c3c2)n(C2CCOCC2)c(=O)n4C)cn1 [AZD0156] (first compound max 1 µM, 7x7, partner max 1 µM)	0.0156	0.0172	-0.0108	-0.0241	-0.0055	0.0229	0.0504	-0.0573	0.0016	-0.0179	-0.0183	-0.032	-0.0243	-0.0343	-0.0168	0.0241	-0.0332	-0.0803	-0.0227	-0.0366
CC(=O)c1c(C)c2cnc(Nc3ccc(N4CCNCC4)cn3)nc2n(C2CCCC2)c1=O [Palbociclib] + Cc1c2c(nn1C)CSCc1cc(n(C)n1)CSc1cc(c3ccccc3c1)OCCCc1c(C(=O)O)n(C)c3c-2c(Cl)ccc13 [AZD5991] (first compound max 10 µM, 7x7, partner max 1 µM)	-0.0235	-0.046	-0.0096	0.0212	-0.014	-0.0472	-0.0171	-0.0622	-0.0284	-0.0749	-0.0565	-0.019	-0.0748	0.0058	-0.0412	-0.0722	0.0018	-0.0608	-0.0567	-0.0106
COc1cccc(OCCCN)c1-c1cc(Nc2cnc(C#N)cn2)n[nH]1 [Prexasertib] + C[C@@H]1COCCN1C2=NC(=NC(=C2)C3(CC3)[S@](=N)(=O)C)C4=C5C=CNC5=NC=C4 [AZD6738] (first compound max 1 µM, 7x7, partner max 10 µM)	-0.0183	-0.0398	-0.0725	-0.0192	-0.03	-0.0311	0.0132	-0.0279	0.0203	-0.0307	-0.0374	-0.0859	-0.0083	-0.0361	0.0336	0.0014	-0.0013	0.006	0.0179	-0.0145
Cc1c2c(nn1C)CSCc1cc(n(C)n1)CSc1cc(c3ccccc3c1)OCCCc1c(C(=O)O)n(C)c3c-2c(Cl)ccc13 [AZD5991] + CN(C)CCCOc1ccc(-c2ccc3ncc4c(c3c2)n(C2CCOCC2)c(=O)n4C)cn1 [AZD0156] (first compound max 1 µM, 7x7, partner max 1 µM)	-0.0378	-0.0175	0.0012	-0.0356	0.0035	-0.0086	0.0541	-0.0082	-0.0081	-0.0015	0.0401	0.0057	-0.013	0.0078	-0.0036	0.0081	0.0163	-0.0155	-0.0235	-0.012
